Laboratory results as given in patent US20240209011A1, “HETEROAROMATIC PHOSPHONIUM SALTS FOR TREATING CANCER” (FLORATEK PHARMA S.A., priority 2021, published 2024).

How the values were obtained:
[1] = tested on: BR-05-0014E; test: PDX-derived cell culture cytotoxicity (CellTiter-Glo); format: cell-based; conditions: 120 h; breast PDX BR-05-0014E; absolute IC50; 5 days
Experimental: (§1) PDX-derived cell cultures were obtained from tumors explanted from mice and isolated by mechanical and enzymatic dissociation. […] Cells were harvested and seeded in 96-wells plates at a density of 1.25 to 5×10^3 cells/well for cytotoxicity assays. Cells were incubated 48 h at 37° C. prior to addition of test molecules and vehicle (DMSO, 0.1%) at desired final concentrations. Cell viability was assessed before drugs' addition (To) and 5 days after test molecules addition by measuring ATP cell content using CellTiter-Glo® Luminescent Cell Viability Assay (Promega) according to the manufacturer's instructions. Luciferase activity was measured on a luminometer (PerkinElmer® EnVision™). Each concentration of compounds was tested in triplicate.
(§2) Viability was calculated as a percentage of ATP value compared to vehicle treated controls.
(§3) For PDX primary cell cultures, the tumour tissue was washed with PBS containing antibiotic-antimycotic and non-tumour tissue and necrotic tumour tissues were separated. The tumour tissue was transferred to a new dish and cut into 1-2 mm^3 fragments, resuspended in RPMI-1640 medium and centrifuged at 1,200 rpm for 6 min at room temperature. The pelleted material was resuspended with 15 mL of Tumour Cell Digestion Solution and incubated at 37° C. for 1 hour with agitation. Following further addition of media, centrifugation and passage through a […] cell strainer, the homogenous cell mixture was layered onto 15 mL of Ficoll-Paque PLUS in a 50 mL conical tube and centrifuged for 15 min at 1,600 rpm. The interface cells were collected, washed with media, separated by centrifugation at 1,200 rpm. The cell pellet was resuspended in serum free media supplemented with growth factors. 10,000 cells/wells were plated in a 96 well plate and incubated at 37° C., 5% CO2, 95% air and 100% relative humidity overnight. The cytotoxicity assay was conducted as above. IC50 values represent absolute IC50.

[2] = tested on: CH-17-0091; test: as above; format: cell-based; conditions: 120 h; bile duct PDX CH-17-0091; absolute IC50; 5 days
Experimental: as §1, §2, §3

[3] = tested on: CO-04-0700; test: as above; format: cell-based; conditions: 120 h; colon PDX CO-04-0700; absolute IC50; 5 days
Experimental: as §1, §2, §3

[4] = tested on: CO-04-0701; test: as above; format: cell-based; conditions: 120 h; colon PDX CO-04-0701; absolute IC50; 5 days
Experimental: as §1, §2, §3

[5] = tested on: EN-11-0101; test: as above; format: cell-based; conditions: 120 h; endometrial PDX EN-11-0101; absolute IC50; 5 days
Experimental: as §1, §2, §3

[6] = tested on: ES-06-0002; test: as above; format: cell-based; conditions: 120 h; esophagus PDX ES-06-0002; absolute IC50; 5 days
Experimental: as §1, §2, §3

[7] = tested on: HN-13-0020; test: as above; format: cell-based; conditions: 120 h; head and neck PDX HN-13-0020; absolute IC50; 5 days
Experimental: as §1, §2, §3

[8] = tested on: LU-01-0025; test: as above; format: cell-based; conditions: 120 h; lung PDX LU-01-0025; absolute IC50; 5 days
Experimental: as §1, §2, §3

[9] = tested on: LU-01-0027; test: as above; format: cell-based; conditions: 120 h; lung PDX LU-01-0027; absolute IC50; 5 days
Experimental: as §1, §2, §3

[10] = tested on: LU-01-0604; test: as above; format: cell-based; conditions: 120 h; lung PDX LU-01-0604; absolute IC50; 5 days
Experimental: as §1, §2, §3

[11] = tested on: LY-24-0340; test: as above; format: cell-based; conditions: 120 h; lymphoma PDX LY-24-0340; absolute IC50; 5 days
Experimental: as §1, §2, §3

[12] = tested on: PC-07-0059; test: as above; format: cell-based; conditions: 120 h; pancreatic PDX PC-07-0059; absolute IC50; 5 days
Experimental: as §1, §2, §3

[13] = tested on: ST-02-0012; test: as above; format: cell-based; conditions: 120 h; stomach PDX ST-02-0012; absolute IC50; 5 days
Experimental: as §1, §2, §3

[14] = biological target: T1, ADCK3 (Homo sapiens, UniProt Q8NI60); test: KINOMEscan competition binding assay, Kd; conditions: 11-point 3-fold dilution series
T1 construct: purchased Eurofins (KINOMEscan); host or cells: T7 phage in BL21-derived E. coli, or HEK-293
Experimental: Selected compounds were screened for kinase inhibition using the KINOMEscan™ assay (Eurofins) which is based on a competition binding assay that quantitatively measures the ability of a compound to compete with an immobilized, active-site directed ligand. The assay was performed by combining three components: DNA-tagged kinase; immobilized ligand; and the test compound. The ability of the test compound to compete with the immobilized ligand was measured via quantitative PCR of the DNA tag.
Kinase-tagged T7 phage strains were prepared in an E. coli host derived from the BL21 strain. E. coli were grown to log-phase and infected with T7 phage and incubated with shaking at 32° C. until lysis. The lysates were centrifuged and filtered to remove cell debris. The remaining kinases were produced in HEK-293 cells and subsequently tagged with DNA for qPCR detection. Streptavidin-coated magnetic beads were treated with biotinylated small molecule ligands for 30 minutes at room temperature to generate affinity resins for kinase assays. The liganded beads were blocked with excess biotin and washed with blocking buffer (SeaBlock (Pierce), 1% BSA, 0.05% Tween 20, 1 mM DTT) to remove unbound ligand and to reduce non-specific binding. Binding reactions were assembled by combining kinases, liganded affinity beads, and test compounds in 1× binding buffer (20% SeaBlock, 0.17×PBS, 0.05% Tween 20, 6 mM DTT). Test compounds were prepared as 111× stocks in 100% DMSO. Kds were determined using an 11-point 3-fold compound dilution series with three DMSO control points. All compounds for Kd measurements are distributed by acoustic transfer (non-contact dispensing) in 100% DMSO. The compounds were then diluted directly into the assays such that the final concentration of DMSO was 0.9%. All reactions performed in polypropylene 384-well plate. Each was a final volume of 0.02 ml. The assay plates were incubated at room temperature with shaking for 1 hour and the affinity beads were washed with wash buffer (1×PBS, 0.05% Tween 20). The beads were then resuspended in elution buffer (1×PBS, 0.05% Tween 20, 0.5 μM nonbiotinylated affinity ligand) and incubated at room temperature with shaking for 30 minutes. The kinase concentration in the eluates was measured by qPCR.
Binding constants (Kds) were calculated with a standard dose-response curve using the Hill equation: Response=Background+[Signal−Background/i+(Kd^Hill Slope/Dose^Hill Slope)]. The Hill Slope was set to −1. Curves were fitted using a non-linear least square fit with the Levenberg-Marquardt algorithm.

T1 sequence (Q8NI60 163-647): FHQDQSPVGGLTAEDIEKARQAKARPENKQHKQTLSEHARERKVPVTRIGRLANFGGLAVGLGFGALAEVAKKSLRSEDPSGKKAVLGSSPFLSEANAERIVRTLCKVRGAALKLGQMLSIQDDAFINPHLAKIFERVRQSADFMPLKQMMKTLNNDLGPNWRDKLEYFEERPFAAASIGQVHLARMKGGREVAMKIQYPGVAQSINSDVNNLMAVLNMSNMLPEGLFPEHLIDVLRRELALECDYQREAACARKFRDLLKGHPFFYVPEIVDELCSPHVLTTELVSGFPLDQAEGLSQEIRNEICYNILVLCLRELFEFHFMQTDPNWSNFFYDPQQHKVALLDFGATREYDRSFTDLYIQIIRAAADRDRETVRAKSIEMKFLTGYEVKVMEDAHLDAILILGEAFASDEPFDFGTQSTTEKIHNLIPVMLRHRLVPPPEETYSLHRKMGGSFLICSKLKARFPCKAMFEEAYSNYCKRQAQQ

Structure (SMILES)	Kd [14] [nM]	IC50 [1] [µM]	IC50 [2] [µM]	IC50 [3] [nM]	IC50 [4] [µM]	IC50 [5] [µM]	IC50 [6] [µM]	IC50 [7] [nM]	IC50 [8] [µM]	IC50 [9] [µM]	IC50 [10] [µM]	IC50 [11] [µM]	IC50 [12] [µM]	IC50 [13] [µM]
CCNC(=O)Oc1ccc2c(=O)cc(-c3ccc(CCCC[P+](c4ccccc4)(c4ccccc4)c4ccccc4)cc3)oc2c1O.[Br-] [SND126A, 4-[4-[7-(Ethylcarbamoyloxy)-8-hydroxy-4-oxo-chromen-2-yl]phenyl]butyltriphenylphosphonium bromide]		7.7	7.2	2300	> 30	10.2	9.3	2700	5.3	12	8.2	4.1	4.9	8.9
CCNC(=O)Oc1ccc2c(=O)cc(-c3ccc(CCCC[P+](c4ccccc4)(c4ccccc4)c4ccccc4)cc3)oc2c1OC(=O)NCC.[Br-] [SND124, 4-[4-[7,8-Bis(ethylcarbamoyloxy)-4-oxo-chromen-2-yl]phenyl]-butyltriphenylphosphonium bromide]		7.2	5.4	2300	21.8	9.6	5.6	2000	4.2	9.3	7.8	3.7	4.2	8.2

Continued, in another order:

Kd [14] [nM]	Structure (SMILES)	IC50 [1] [µM]	IC50 [2] [µM]	IC50 [3] [nM]	IC50 [4] [µM]	IC50 [5] [µM]	IC50 [6] [µM]	IC50 [7] [nM]	IC50 [8] [µM]	IC50 [9] [µM]	IC50 [10] [µM]	IC50 [11] [µM]	IC50 [12] [µM]	IC50 [13] [µM]
1500	O=c1cc(-c2ccc(CCCC[P+](c3ccccc3)(c3ccccc3)c3ccccc3)cc2)oc2c(O)c(O)ccc12 [SND118, 4-[4-(7,8-dihydroxy-4-oxo-chromen-2-yl)phenyl]butyltriphenyl-phosphonium bromide]													
820	O=c1cc(-c2ccc(CCCC[P+](c3ccccc3)(c3ccccc3)c3ccccc3)cc2)oc2c3c(ccc12)OCO3.[Br-] [SND123, 4-[4-(6-oxo-[1,3]dioxolo[4,5-h]chromen-8-yl)phenyl]butyl-triphenylphosphonium bromide]	0.98	3	2600	3.4	1.8	2.9	1500	2.4	5.9	0.35	0.4	2.7	0.3
620	COc1c(O)ccc2c(=O)cc(-c3ccc(CCCC[P+](c4ccccc4)(c4ccccc4)c4ccccc4)cc3)oc12.[Br-] [SND140, (4-(4-(7-hydroxy-8-methoxy-4-oxo-4H-chromen-2-yl)phenyl)butyl)triphenylphosphonium bromide]	10.4	> 50	12800	13.8	6.2	9.66	9100	10.5	16	7.7	4.1	20.4	4.9
